The text below walks through data of ChEMBL document CHEMBL1201862, “PubChem BioAssay data set” (2004).

Among the test systems are COLO 205; DU-145; HCT-116; IGROV-1; KM12; LOX IMVI; M14; MOLT-4; NCI-H460; NCI-H522; NCI/ADR-RES; OVCAR-4; OVCAR-8; RPMI-8226; SF-268; SK-MEL-28; SN12C; SW-620; TK-10; U-251.
What all share (assay): DTP human tumour cell line panel, 48 h

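Where inhibition never reached the appropriate level, the endpoint shown equals the highest concentration tested. Otherwise, values were interpolated linearly from a five-concentration, 48-hour dose response in 96-well plates. Here, GI50 denotes the concentration required for 50% inhibition of growth.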 The source made the active and inactive calls. No stated cut-off is given here; in the data, active = GI50 up to about 1.1 µM and inactive = higher.

Broadly, the GI50 is the concentration at which growth is held to half of that of the control. For the compound `Cc1occc(=O)c1O` [MALTOL], the GI50 in the test on COLO 205, in the test with DU-145, in the test with HCT-116, with IGROV-1, with KM12 and with LOX IMVI was > 100 µM (inactive) in each case. Also, the GI50 in the test with M14, in the test with MOLT-4, in the test with NCI-H460, with NCI-H522, in the test with NCI/ADR-RES and in the test with OVCAR-4 was > 100 µM (inactive) each time. Besides, the GI50 with OVCAR-8 is > 100 µM (inactive); in the test with RPMI-8226 it was > 100 µM (inactive); with SF-268, > 100 µM (inactive); with SK-MEL-28 it was > 100 µM (inactive); in the test on SN12C, 5 µM (inactive); with SW-620 it was > 100 µM (inactive). Besides, the GI50 in the test on TK-10 and with U-251 was > 100 µM (inactive) in each case.

`COc1cc(C2c3cc4c(cc3[C@@H](Nc3ccc(F)cc3)C3COC(=O)[C@H]23)OCO4)cc(OC)c1O` (some centres undefined): the GI50 in the test with COLO 205 was 2.03 µM (inactive); with DU-145, 0.368 µM (active); in the test with HCT-116, 2.77 µM (inactive); in the test with IGROV-1, 5.31 µM (inactive); in the test on KM12, 3.77 µM (inactive); in the test with LOX IMVI, 0.753 µM (active). The GI50 was 2.56 µM (inactive) with M14; 0.0535 µM (active) with MOLT-4; 0.0468 µM (active) in the test with NCI-H460; 2.88 µM (inactive) in the test with NCI-H522; 3.97 µM (inactive) in the test on NCI/ADR-RES; 15.1 µM (inactive) in the test on OVCAR-4. The GI50 in the test on OVCAR-8 was 2.53 µM (inactive); in the test with RPMI-8226, 1.1 µM (active); in the test with SF-268, 3.17 µM (inactive); with SK-MEL-28, 7.69 µM (inactive); with SN12C, 1.57 µM (inactive); in the test with SW-620 it was 1.69 µM (inactive). Also, the GI50 in the test with TK-10 was 4.88 µM (inactive); in the test on U-251, 1.09 µM (active).

With `N#Cc1c(N)[nH]c(=S)c(C#N)c1-c1cccc(Cl)c1`, the GI50 is 15.2 µM (inactive) with COLO 205; 33.3 µM (inactive) in the test on DU-145; 24.4 µM (inactive) with HCT-116; 32.9 µM (inactive) with IGROV-1; 43.3 µM (inactive) with KM12; 39.9 µM (inactive) with LOX IMVI. The GI50 with M14 was 36.5 µM (inactive); with MOLT-4 it was 18.4 µM (inactive); with NCI-H460, 32.5 µM (inactive); with NCI-H522, 18.9 µM (inactive); in the test with NCI/ADR-RES, 67.1 µM (inactive); in the test with OVCAR-4, 40.7 µM (inactive). The GI50 in the test on OVCAR-8 was 30.1 µM (inactive); in the test on RPMI-8226 it was 23.8 µM (inactive); in the test with SF-268, 21.8 µM (inactive); in the test with SK-MEL-28 it was 39.6 µM (inactive); with SN12C, 20.4 µM (inactive); with SW-620, 24.4 µM (inactive). Moreover, the GI50 is 65.2 µM (inactive) in the test on TK-10 and 25.9 µM (inactive) in the test on U-251.

On to `Cc1ccc(Nc2ncnc3sc(SCc4ccccc4)nc23)cc1`, for which the GI50 was > 100 µM (inactive) with COLO 205; 27.3 µM (inactive) in the test with DU-145; > 100 µM (inactive) in the test on HCT-116; > 100 µM (inactive) in the test with IGROV-1; > 100 µM (inactive) in the test on KM12; > 100 µM (inactive) in the test with LOX IMVI. Also, the GI50 in the test with M14, in the test on MOLT-4, in the test with NCI-H460, in the test on NCI-H522, in the test on NCI/ADR-RES and in the test on OVCAR-4 was > 100 µM (inactive) throughout. The GI50 in the test on OVCAR-8 is > 100 µM (inactive); in the test with RPMI-8226, 48 µM (inactive); with SF-268, > 100 µM (inactive); in the test with SK-MEL-28 it was > 100 µM (inactive); in the test with SN12C it was > 100 µM (inactive); in the test with SW-620 it was > 100 µM (inactive). The results for the GI50 in the test with TK-10 and with U-251 were 52.4 µM (inactive) and > 100 µM (inactive), respectively.

As for `CC1=NN2C(=N)/C(=C/c3ccco3)C(=O)N=C2S1`, the GI50 with COLO 205, in the test on DU-145, in the test with HCT-116, in the test with IGROV-1, in the test on KM12 and with LOX IMVI was > 100 µM (inactive) each time. In addition, the GI50 in the test on M14 was > 100 µM (inactive); in the test on MOLT-4 it was > 100 µM (inactive); in the test with NCI-H460, > 100 µM (inactive); with NCI-H522 it was 1.15 µM (inactive); in the test with NCI/ADR-RES it was > 100 µM (inactive); with OVCAR-4, > 100 µM (inactive). The GI50 in the test on OVCAR-8, with RPMI-8226, with SF-268, with SK-MEL-28, with SN12C and in the test with SW-620 was > 100 µM (inactive) each time. Also, the GI50 in the test on TK-10 and with U-251 was > 100 µM (inactive) in each case.

Regarding `Cc1ccccc1OC(C)C(=O)NN1C(=O)CSC1c1ccc(Cl)cc1` (centres undefined), the GI50 was > 56.1 µM (inactive) with COLO 205; 38.2 µM (inactive) with DU-145; 31.4 µM (inactive) in the test on HCT-116; 38.5 µM (inactive) in the test on IGROV-1; 42.2 µM (inactive) in the test on KM12; 24.4 µM (inactive) in the test on LOX IMVI. In addition, the GI50 in the test on M14 is 41.5 µM (inactive); in the test with MOLT-4, 22.1 µM (inactive); in the test on NCI-H460, 26.1 µM (inactive); in the test with NCI-H522, 4.16 µM (inactive); in the test with NCI/ADR-RES, 54.3 µM (inactive); with OVCAR-4, 36.4 µM (inactive). In addition, the GI50 in the test with OVCAR-8 was 52 µM (inactive); with RPMI-8226, 26.5 µM (inactive); in the test with SF-268, 25.4 µM (inactive); with SK-MEL-28, 73.3 µM (inactive); in the test on SN12C, 17.5 µM (inactive); in the test on SW-620, 32.1 µM (inactive). Moreover, the values for the GI50 in the test with TK-10 and with U-251 were 47.4 µM (inactive) and 30 µM (inactive), respectively.

As to `N#Cc1cc(N(CCCl)CCCl)c([N+](=O)[O-])cc1[N+](=O)[O-]`, the GI50 with COLO 205 is > 100 µM (inactive); in the test on DU-145, 32.4 µM (inactive); in the test with HCT-116, > 100 µM (inactive); with IGROV-1, > 100 µM (inactive); in the test with KM12 it was > 100 µM (inactive); in the test with LOX IMVI, 98.2 µM (inactive). Besides, the GI50 was > 100 µM (inactive) in the test on M14; 24 µM (inactive) with MOLT-4; 18.6 µM (inactive) in the test on NCI-H460; 87.9 µM (inactive) in the test with NCI-H522; > 100 µM (inactive) with NCI/ADR-RES; > 100 µM (inactive) in the test on OVCAR-4. The GI50 in the test on OVCAR-8 is > 100 µM (inactive); in the test with RPMI-8226 it was 38.2 µM (inactive); in the test with SF-268, > 100 µM (inactive); in the test with SK-MEL-28 it was > 100 µM (inactive); in the test on SN12C, 48 µM (inactive); in the test with SW-620, > 100 µM (inactive). The GI50 in the test with TK-10 and with U-251 was > 100 µM (inactive) in each case.

In the case of `Cc1ccc(NC(=O)CCc2nnc3s/c(=C\C=C\c4ccccc4)c(=O)n23)cc1`, the GI50 in the test with COLO 205 was > 100 µM (inactive); in the test on DU-145, > 100 µM (inactive); with HCT-116, > 100 µM (inactive); with IGROV-1 it was > 100 µM (inactive); in the test with KM12, 61.8 µM (inactive); with LOX IMVI it was 27 µM (inactive). Further, the GI50 in the test with M14 is > 100 µM (inactive); in the test with MOLT-4 it was 30 µM (inactive); in the test on NCI-H460, > 83.6 µM (inactive); in the test with NCI-H522, 37.8 µM (inactive); in the test with NCI/ADR-RES it was 26.5 µM (inactive); with OVCAR-4 it was > 56.2 µM (inactive). For the same compound, the GI50 with OVCAR-8 was 31.3 µM (inactive); in the test with RPMI-8226 it was 46.9 µM (inactive); in the test on SF-268, 59.3 µM (inactive); in the test on SK-MEL-28, > 100 µM (inactive); in the test with SN12C, > 100 µM (inactive); in the test on SW-620, > 100 µM (inactive). The GI50 in the test on TK-10 was > 100 µM (inactive); in the test on U-251, 53.3 µM (inactive).

For the compound `Cn1c(=S)c2nc(SCCN3C(=O)c4ccccc4C3=O)[nH]c2n(C)c1=O`, the GI50 with COLO 205 is > 100 µM (inactive); with DU-145, > 100 µM (inactive); in the test with HCT-116, > 100 µM (inactive); in the test with IGROV-1, 30.1 µM (inactive); in the test with KM12, > 100 µM (inactive); in the test on LOX IMVI, > 100 µM (inactive). Also, the GI50 was > 100 µM (inactive) in the test with M14; 88.3 µM (inactive) in the test with MOLT-4; 92.7 µM (inactive) in the test with NCI-H460; 5.27 µM (inactive) in the test on NCI-H522; > 100 µM (inactive) in the test with NCI/ADR-RES; > 100 µM (inactive) in the test with OVCAR-4. The GI50 with OVCAR-8 was > 100 µM (inactive); in the test with RPMI-8226 it was 25.5 µM (inactive); in the test on SF-268, > 100 µM (inactive); in the test on SK-MEL-28, > 100 µM (inactive); in the test on SN12C, > 100 µM (inactive); with SW-620, > 100 µM (inactive). The GI50 with TK-10 and in the test on U-251 was > 100 µM (inactive) throughout.

`CC(C)(C)C(=O)C(C(c1ccccc1)N1CCOCC1)N1CCOCC1` (centres undefined): the GI50 with DU-145, with HCT-116, in the test with IGROV-1, in the test on KM12, in the test on LOX IMVI and with M14 was > 100 µM (inactive) in each case. The GI50 in the test on MOLT-4, with NCI-H460, with NCI-H522, in the test with NCI/ADR-RES, in the test with OVCAR-4 and in the test on OVCAR-8 was > 100 µM (inactive) in each case. Also, the GI50 in the test on RPMI-8226, in the test on SF-268, with SK-MEL-28, with SN12C, with SW-620 and with TK-10 was > 100 µM (inactive) throughout. Moreover, the GI50 in the test with U-251 was > 100 µM (inactive).
